Reference: patent US8889627B2 (Teva Pharmaceutical Industries, Ltd., priority 2011, dated 2014)

Experiments:
MOG-induced EAE mice = assay: Efficacy of laquinimod alone or in combination with fingolimod in MOG-induced EAE; assay type: in vivo, mice (C57BL/6); details: for activity according to GMS compared to vehicle control: oral QD; for Duration / Onset / Mortality / GMS value / Incidence: Day 1 to 30; for Mortality: dead or moribund/total mice; for GMS value: group mean clinical score (0-6); for Incidence: sick/total mice
S1PR5 = S1PR5 (Homo sapiens, UniProt Q9H228); details: cited from earlier work
Chain of S1PR5 (Q9H228 whole entry, species assumed): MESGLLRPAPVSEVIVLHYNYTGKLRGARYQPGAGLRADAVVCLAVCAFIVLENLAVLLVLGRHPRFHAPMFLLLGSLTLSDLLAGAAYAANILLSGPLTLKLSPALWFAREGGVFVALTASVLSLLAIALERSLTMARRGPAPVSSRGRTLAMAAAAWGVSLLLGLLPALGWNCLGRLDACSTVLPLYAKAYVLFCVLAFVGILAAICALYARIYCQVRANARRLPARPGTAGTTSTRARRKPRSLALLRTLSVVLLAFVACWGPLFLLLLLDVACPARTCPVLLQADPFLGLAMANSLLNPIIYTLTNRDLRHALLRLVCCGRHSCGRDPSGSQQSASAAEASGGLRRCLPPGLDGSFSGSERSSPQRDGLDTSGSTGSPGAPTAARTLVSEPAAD

S1PR4 = biological target: T1, S1PR4 (Homo sapiens, UniProt O95977); details: cited from earlier work
T1 sequence (O95977 1-384): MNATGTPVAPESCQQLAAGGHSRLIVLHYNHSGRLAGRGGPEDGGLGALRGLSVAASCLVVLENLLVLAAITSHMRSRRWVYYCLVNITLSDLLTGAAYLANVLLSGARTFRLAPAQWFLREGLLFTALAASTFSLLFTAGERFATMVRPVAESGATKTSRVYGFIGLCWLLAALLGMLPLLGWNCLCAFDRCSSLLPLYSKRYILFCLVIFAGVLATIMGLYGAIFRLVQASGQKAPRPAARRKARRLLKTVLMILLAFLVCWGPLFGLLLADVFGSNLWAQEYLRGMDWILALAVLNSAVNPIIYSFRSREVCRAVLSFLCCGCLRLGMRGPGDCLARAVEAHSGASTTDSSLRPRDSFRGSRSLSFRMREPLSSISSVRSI

Question: With `CCCCCCCCc1ccc(CCC(N)(CO)CO)cc1` [Fingolimod, 2-amino-2-[2-(4-octylphenyl)ethyl]propane-1,3-diol] as the molecule, how does the “activity according to GMS compared to vehicle control” value (MOG-induced EAE mice; fingolimod 0.3 mg/kg (sub optimal dose)) read?
Answer: Its value is 56.3%.

Question: What about the “effectiveness against EAE (in words)” value (MOG-induced EAE mice; fingolimod 0.3 mg/kg alone) of the same molecule?
Answer: Its value is “moderately effective”.

Question: And the “Duration” value (MOG-induced EAE mice; fingolimod 0.3 mg/kg oral QD)?
Answer: The value was 15.0 ± 6.7 days.

Question: And the “Onset” value (MOG-induced EAE mice; fingolimod 0.3 mg/kg oral QD)?
Answer: The value was 16.0 ± 6.7 days.

Question: And the Mortality (MOG-induced EAE mice; fingolimod 0.3 mg/kg oral QD)?
Answer: The Mortality was 0/15.

Question: And the GMS value (MOG-induced EAE mice; fingolimod 0.3 mg/kg oral QD)?
Answer: The GMS value was 1.4 ± 0.8.

Question: What about the Incidence (MOG-induced EAE mice; fingolimod 0.3 mg/kg oral QD) of the same molecule?
Answer: The Incidence was 13/15.

Question: And the “activity according to GMS compared to vehicle control” value (MOG-induced EAE mice; fingolimod 1 mg/kg (optimal dose))?
Answer: The value was 81.3%.

Question: What about the “Duration” value (MOG-induced EAE mice; fingolimod 1 mg/kg oral QD) of the same molecule?
Answer: Its value is 7.59 ± 9.1 days.

Question: What about the “Onset” value (MOG-induced EAE mice; fingolimod 1 mg/kg oral QD) of the same molecule?
Answer: Its value is 21.7 ± 9.3 days.

Question: And the Mortality (MOG-induced EAE mice; fingolimod 1 mg/kg oral QD)?
Answer: The Mortality was 0/15.

Question: And the GMS value (MOG-induced EAE mice; fingolimod 1 mg/kg oral QD)?
Answer: The GMS value was 0.6 ± 0.8.

Question: What about the Incidence (MOG-induced EAE mice; fingolimod 1 mg/kg oral QD) of the same molecule?
Answer: Its Incidence is 8/15.

Question: What does the source list for `CCCCCCCCc1ccc(CCC(N)(CO)COP(=O)(O)O)cc1` (stereo not shown) [Fingolimod-phosphate]?
Answer: binding affinity (in words) (S1PR5): high affinity; binding affinity (in words) (S1PR4): high affinity

Question: What does the source list for `CCN(C(=O)c1c(O)c2c(Cl)cccc2n(C)c1=O)c1ccccc1` [Laquinimod]?
Answer: activity according to GMS compared to vehicle control (MOG-induced EAE mice; laquinimod 10 mg/kg (sub optimal dose)): 53.1%; effectiveness against EAE (in words) (MOG-induced EAE mice; laquinimod 10 mg/kg alone): moderately effective; Duration (MOG-induced EAE mice; laquinimod 10 mg/kg oral QD): 14.1 ± 6.4 days; Onset (MOG-induced EAE mice; laquinimod 10 mg/kg oral QD): 17.1 ± 6.3 days; Mortality (MOG-induced EAE mice; laquinimod 10 mg/kg oral QD): 0/15; GMS value (MOG-induced EAE mice; laquinimod 10 mg/kg oral QD): 1.5 ± 0.8; Incidence (MOG-induced EAE mice; laquinimod 10 mg/kg oral QD): 13/15; activity according to GMS compared to vehicle control (MOG-induced EAE mice; laquinimod 25 mg/kg (optimal dose)): 81.1%; Duration (MOG-induced EAE mice; laquinimod 25 mg/kg oral QD): 8.1 ± 9.0 days; Onset (MOG-induced EAE mice; laquinimod 25 mg/kg oral QD): 22.9 ± 9.0 days; Mortality (MOG-induced EAE mice; laquinimod 25 mg/kg oral QD): 0/15; GMS value (MOG-induced EAE mice; laquinimod 25 mg/kg oral QD): 0.6 ± 0.8; Incidence (MOG-induced EAE mice; laquinimod 25 mg/kg oral QD): 7/15
